Source: PMC9354705, “Characterization of TR‐107, a novel chemical activator of the human mitochondrial protease ClpP” (Pharmacology Research & Perspectives, 2022)
“And” between values parts separate entries of the source, which are not always exact repeats. Identical values can stand only once.

How the values were obtained:
C3(1)‐Tag cells = assay: Cell viability assay of C3Tag cells; format: cell-based, murine; details: Mus musculus; 72 h, Hoechst stain, N = 2
recombinant human ClpP = target: T1, recombinant human ClpP (Homo sapiens, UniProt Q16740); assay: Surface plasmon resonance binding to ClpP; details: steady state, one‐site Langmuir binding model, 25°C; read-out: Kd (SPR)
T1 construct: made in house
T1 sequence (Q16740 57-277): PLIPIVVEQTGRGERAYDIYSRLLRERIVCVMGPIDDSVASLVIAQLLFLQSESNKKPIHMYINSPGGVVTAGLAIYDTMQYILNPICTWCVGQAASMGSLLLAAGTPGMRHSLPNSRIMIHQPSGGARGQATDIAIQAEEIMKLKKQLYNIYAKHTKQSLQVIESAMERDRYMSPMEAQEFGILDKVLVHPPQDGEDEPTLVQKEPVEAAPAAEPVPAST
Experimental: For the surface plasmon resonance (SPR) experiments, recombinant human ClpP was purified as previously described.[46] SPR measurements were performed on a Biacore X100 instrument (Cytiva Life Sciences) at 25°C in buffer (25 mM sodium phosphate, pH 7.5, 200 mM KCl, 0.05% Tween‐20, and 0.004% DMSO). ClpP was immobilized onto flowcell two of a CM5 chip (Cytive Life Sciences) using the amine coupling wizard using Biacore X100 Control Software. A pulse of a mixture of NHS and EDC activated the CM5 chip surface. ClpP was diluted to 100 μg/ml in 10 mM sodium acetate, pH 4.5 immediately prior to use and injected over the activated surface for 180 s. The remaining activated sites were blocked with a pulse of ethanolamine. 12 000 RU of ClpP was captured using this procedure. Flowcell 1 was unmodified and served as a reference. For TR‐107 binding to ClpP, a concentration series of TR‐107 in DMSO was diluted into the buffer to achieve 0.004% final DMSO concentration in all samples. Three replicates were injected for each concentration. Data were blank subtracted and analysis was performed in Biacore X100 Evaluation Software (Cytiva Life Sciences). The steady‐state response was calculated 15 s before the end of injection with a window of 15 s. Data were fitted to a one‐site Langmuir binding model.

[1] = test system: ClpP‐KO MDA‐MB‐231 and SUM159 cells; assay: Cell growth in ClpP‐KO cells; format: cell-based, human; details: concentrations as high as 1 μM, up to 72 h
Source text: sgRNA against human ClpP (Eurofins Genomics) was annealed and ligated into vector VDB783. This vector was transformed into DH5α cells and the presence of sgRNA was confirmed by colony PCR. Lentivirus was produced in HEK293T cells following transfection with plasmid and jetPRIME (PolyPlus) as previously described.[43] Clonal populations of SUM159 cells infected with dCas9‐KRAB lentivirus were clonally isolated to ensure dCas9‐KRAB expression. Isolated SUM159 cells were infected with ClpP sgRNA lentivirus followed by additional selection passage in growth media supplemented with […] puromycin.
Total cell counting assays were performed by seeding MDA‐MB‐231 cells (WT and ClpP‐KO; 4000 cells/well) or SUM159 (WT and ClpP‐KO; 1000 cells/well) in a 96‐well plate (Perkin Elmer, 6005050) and allowed to adhere overnight. The growth medium was then aspirated and replaced with 100 μl of growth medium supplemented with the drug at concentrations indicated in the figure or figure legends. Cells treated with vehicle control (0.1% DMSO, Sigma‐Aldrich D2650) were used as a negative control in all experiments, and cells were incubated with drug‐containing media for 24, 48, or 72 h as indicated in figure legends. […] The total cell number was then quantified using the Celigo Imaging Cytometer (Nexcelom).

MDA‐MB‐231 cells = assay: Mitochondrial respiration analysis (Seahorse XF); format: cell-based, human; details: 24 h
Experimental: Cellular oxygen consumption and extracellular acidification rates (OCR and ECAR, respectively) were measured using Seahorse XFe96 (Agilent). MDA‐MB‐231 cells were plated (15 000 cells/well) in Seahorse XF96 plates (Agilent, 102416‐100) and allowed to adhere overnight. Cells were then treated with 25 or 50 nM TR‐107 for 24 h. On the day of Seahorse XF analysis, the growth medium was replaced with an XF base medium (Agilent, 103575‐100) supplemented with appropriate concentrations of TR‐107. After measurement of basal OCR/ECAR, 1 μM Oligomycin, 1 μM FCCP, and 1 μM Rotenone/Antimycin A (Agilent, 103015‐100) were added at indicated time points. OCR/ECAR were measured every 6.5 min for 73 min.

## N#Cc1cccc(CN2CCc3ncn(Cc4ccc(Cl)cc4)c(=O)c3C2)c1 [TR‐107]
C3(1)‐Tag cells
  IC50: 22 nM
Recombinant human ClpP
  Kd: ~180 nM and 178 nM
[1]
  cell growth in ClpP‐KO cells: not inhibited
MDA‐MB‐231 cells; ClpP‐KO MDA‐MB‐231, 25, 50 nM
  decline in oxygen consumption rate (OCR): not observed
MDA‐MB‐231 cells; MDA‐MB‐231, 25, 50 nM
  extracellular acidification (ECAR): dose‐dependent increase
MDA‐MB‐231 cells; WT MDA‐MB‐231, 25, 50 nM
  oxygen consumption rate (OCR): dose‐dependent decline
